From publication PMC5513037, “Examining the influence of specificity ligands and ATP-competitive ligands on the overall effectiveness of bivalent kinase inhibitors” (Proteome Science, 2017)

Columns and labels:
Test in all cases: KAM-matrix competition in K562 lysate;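 on 0.001 uM KAM: median log10 fold change of treatment over DMSO control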;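 on 0.01 uM KAM: median log10 fold change of treatment over DMSO control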;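 on 0.1 uM KAM: median log10 fold change of treatment over DMSO control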;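 on 1 uM KAM: median log10 fold change of treatment over DMSO control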;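 on 10 uM KAM: median log10 fold change of treatment over DMSO control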
Assay type in all cases: binding
CDC42BPA = target: T1, CDC42BPA (Homo sapiens, UniProt Q5VT25);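 on 0.001 uM KAM: median log10 fold change of treatment over DMSO control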;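 on 0.01 uM KAM: median log10 fold change of treatment over DMSO control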;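 on 0.1 uM KAM: median log10 fold change of treatment over DMSO control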;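 on 1 uM KAM: median log10 fold change of treatment over DMSO control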;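 on 10 uM KAM: median log10 fold change of treatment over DMSO control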
T1 construct: endogenous in cells; host or cells: K562
T1 sequence (Q5VT25 whole entry): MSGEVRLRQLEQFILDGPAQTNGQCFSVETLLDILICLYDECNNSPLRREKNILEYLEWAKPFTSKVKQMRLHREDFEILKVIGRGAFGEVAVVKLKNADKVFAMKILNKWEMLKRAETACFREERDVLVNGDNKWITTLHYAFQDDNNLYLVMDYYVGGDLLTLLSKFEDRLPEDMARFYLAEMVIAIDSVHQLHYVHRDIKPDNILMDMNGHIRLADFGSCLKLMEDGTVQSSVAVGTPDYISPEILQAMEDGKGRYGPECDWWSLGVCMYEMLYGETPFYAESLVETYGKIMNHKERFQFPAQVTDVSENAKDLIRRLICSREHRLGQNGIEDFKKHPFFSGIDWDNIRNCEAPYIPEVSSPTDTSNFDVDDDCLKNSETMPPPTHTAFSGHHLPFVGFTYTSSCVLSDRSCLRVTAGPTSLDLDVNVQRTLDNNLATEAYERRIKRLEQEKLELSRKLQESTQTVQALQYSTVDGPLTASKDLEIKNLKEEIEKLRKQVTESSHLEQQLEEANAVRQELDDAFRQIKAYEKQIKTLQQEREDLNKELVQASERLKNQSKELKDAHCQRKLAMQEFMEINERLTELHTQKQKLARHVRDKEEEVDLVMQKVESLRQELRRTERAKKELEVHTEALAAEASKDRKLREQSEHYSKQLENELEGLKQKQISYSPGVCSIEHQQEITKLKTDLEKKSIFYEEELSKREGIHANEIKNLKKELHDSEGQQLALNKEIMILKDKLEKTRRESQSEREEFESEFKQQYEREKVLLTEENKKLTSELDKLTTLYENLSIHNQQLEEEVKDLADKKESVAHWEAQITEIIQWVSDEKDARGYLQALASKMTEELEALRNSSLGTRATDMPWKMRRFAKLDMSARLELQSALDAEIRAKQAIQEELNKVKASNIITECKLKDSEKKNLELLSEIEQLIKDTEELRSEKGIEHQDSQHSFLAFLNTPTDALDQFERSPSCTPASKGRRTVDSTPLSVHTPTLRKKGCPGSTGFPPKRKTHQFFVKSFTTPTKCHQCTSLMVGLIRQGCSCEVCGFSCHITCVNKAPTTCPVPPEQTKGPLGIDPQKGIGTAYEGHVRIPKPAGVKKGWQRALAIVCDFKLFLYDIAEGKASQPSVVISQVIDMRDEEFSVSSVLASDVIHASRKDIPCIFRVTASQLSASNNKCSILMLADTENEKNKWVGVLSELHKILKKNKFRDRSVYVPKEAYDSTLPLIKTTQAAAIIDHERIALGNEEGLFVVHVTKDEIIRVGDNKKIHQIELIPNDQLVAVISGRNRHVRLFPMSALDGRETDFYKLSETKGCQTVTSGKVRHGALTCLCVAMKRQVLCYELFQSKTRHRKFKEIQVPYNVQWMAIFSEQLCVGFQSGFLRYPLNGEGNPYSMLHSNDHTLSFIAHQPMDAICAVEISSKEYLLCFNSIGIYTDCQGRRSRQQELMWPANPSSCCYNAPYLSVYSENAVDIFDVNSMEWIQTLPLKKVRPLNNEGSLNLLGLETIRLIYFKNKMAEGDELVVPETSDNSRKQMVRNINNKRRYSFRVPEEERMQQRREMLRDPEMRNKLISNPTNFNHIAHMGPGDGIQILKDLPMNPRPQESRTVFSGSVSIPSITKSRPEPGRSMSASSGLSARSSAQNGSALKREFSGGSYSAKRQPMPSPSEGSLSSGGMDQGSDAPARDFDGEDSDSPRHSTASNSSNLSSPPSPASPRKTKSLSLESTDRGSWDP
Procedure: (§1) Supplement 12953_2017_125_MOESM1_ESM.zip/MS_Supp Info.xlsx, sheet "KAM" | column: 10 uM KAM; 1 uM KAM; 0.1 uM KAM; 0.01 uM KAM; 0.001 uM KAM; RB50

CIT = target: T2, CIT (Homo sapiens, UniProt O14578);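 on 0.001 uM KAM: median log10 fold change of treatment over DMSO control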;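 on 0.01 uM KAM: median log10 fold change of treatment over DMSO control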;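 on 0.1 uM KAM: median log10 fold change of treatment over DMSO control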;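 on 1 uM KAM: median log10 fold change of treatment over DMSO control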;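 on 10 uM KAM: median log10 fold change of treatment over DMSO control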
T2 construct: endogenous in cells; host or cells: K562 lysate
T2 sequence (O14578 whole entry): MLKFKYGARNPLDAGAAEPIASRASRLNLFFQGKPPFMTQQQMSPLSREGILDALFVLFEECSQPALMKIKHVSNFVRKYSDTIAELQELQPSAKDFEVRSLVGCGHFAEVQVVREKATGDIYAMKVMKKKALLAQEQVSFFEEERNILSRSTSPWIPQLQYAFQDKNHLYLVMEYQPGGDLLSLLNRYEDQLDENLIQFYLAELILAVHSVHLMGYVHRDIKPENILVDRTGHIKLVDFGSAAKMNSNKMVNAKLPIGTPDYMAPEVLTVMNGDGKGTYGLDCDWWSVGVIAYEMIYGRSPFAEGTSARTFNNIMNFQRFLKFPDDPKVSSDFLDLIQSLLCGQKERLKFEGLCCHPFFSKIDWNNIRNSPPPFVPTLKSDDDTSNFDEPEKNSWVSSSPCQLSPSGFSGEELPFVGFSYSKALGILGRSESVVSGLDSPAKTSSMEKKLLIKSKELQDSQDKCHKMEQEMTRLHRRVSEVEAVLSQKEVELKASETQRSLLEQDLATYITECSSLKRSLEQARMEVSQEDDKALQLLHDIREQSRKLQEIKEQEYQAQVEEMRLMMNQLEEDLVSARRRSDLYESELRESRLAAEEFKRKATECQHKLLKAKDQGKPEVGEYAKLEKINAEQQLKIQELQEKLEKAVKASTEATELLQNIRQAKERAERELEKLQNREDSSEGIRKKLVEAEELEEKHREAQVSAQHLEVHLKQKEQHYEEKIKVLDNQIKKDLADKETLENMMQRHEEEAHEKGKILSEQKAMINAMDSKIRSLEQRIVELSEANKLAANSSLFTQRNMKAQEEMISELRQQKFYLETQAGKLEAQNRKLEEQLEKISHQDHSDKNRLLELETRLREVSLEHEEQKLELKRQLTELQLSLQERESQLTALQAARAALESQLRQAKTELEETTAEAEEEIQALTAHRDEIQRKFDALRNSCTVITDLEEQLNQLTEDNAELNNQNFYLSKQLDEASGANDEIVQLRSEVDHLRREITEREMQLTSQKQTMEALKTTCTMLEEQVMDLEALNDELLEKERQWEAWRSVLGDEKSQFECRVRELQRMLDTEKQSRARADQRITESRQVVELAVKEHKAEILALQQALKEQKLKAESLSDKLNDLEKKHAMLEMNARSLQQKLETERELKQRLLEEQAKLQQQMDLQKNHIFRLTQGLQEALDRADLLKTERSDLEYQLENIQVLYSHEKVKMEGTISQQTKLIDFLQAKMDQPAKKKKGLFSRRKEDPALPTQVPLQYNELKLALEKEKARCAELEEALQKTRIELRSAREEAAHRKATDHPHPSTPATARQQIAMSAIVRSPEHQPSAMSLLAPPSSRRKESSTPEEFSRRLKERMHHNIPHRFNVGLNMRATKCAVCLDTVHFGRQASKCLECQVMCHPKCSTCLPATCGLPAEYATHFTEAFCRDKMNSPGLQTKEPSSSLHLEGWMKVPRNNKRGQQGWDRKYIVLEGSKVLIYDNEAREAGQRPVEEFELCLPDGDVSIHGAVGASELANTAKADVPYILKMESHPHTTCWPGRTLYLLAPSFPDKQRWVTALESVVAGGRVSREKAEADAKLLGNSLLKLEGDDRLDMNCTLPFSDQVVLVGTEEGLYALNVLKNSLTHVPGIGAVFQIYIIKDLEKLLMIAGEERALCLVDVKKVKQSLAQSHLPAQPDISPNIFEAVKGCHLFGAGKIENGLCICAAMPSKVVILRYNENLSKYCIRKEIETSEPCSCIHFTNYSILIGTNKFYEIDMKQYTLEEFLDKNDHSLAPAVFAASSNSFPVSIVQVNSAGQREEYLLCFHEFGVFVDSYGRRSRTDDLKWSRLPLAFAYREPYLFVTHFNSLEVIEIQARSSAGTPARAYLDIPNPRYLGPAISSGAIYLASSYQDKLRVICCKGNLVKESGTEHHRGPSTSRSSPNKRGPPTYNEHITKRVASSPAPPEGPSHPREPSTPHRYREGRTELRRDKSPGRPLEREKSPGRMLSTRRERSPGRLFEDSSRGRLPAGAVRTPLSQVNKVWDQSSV
Procedure: as §1

FYN = target: T3, FYN (Homo sapiens, UniProt P06241)
T3 construct: endogenous in cells; host or cells: K562
T3 sequence (P06241 whole entry): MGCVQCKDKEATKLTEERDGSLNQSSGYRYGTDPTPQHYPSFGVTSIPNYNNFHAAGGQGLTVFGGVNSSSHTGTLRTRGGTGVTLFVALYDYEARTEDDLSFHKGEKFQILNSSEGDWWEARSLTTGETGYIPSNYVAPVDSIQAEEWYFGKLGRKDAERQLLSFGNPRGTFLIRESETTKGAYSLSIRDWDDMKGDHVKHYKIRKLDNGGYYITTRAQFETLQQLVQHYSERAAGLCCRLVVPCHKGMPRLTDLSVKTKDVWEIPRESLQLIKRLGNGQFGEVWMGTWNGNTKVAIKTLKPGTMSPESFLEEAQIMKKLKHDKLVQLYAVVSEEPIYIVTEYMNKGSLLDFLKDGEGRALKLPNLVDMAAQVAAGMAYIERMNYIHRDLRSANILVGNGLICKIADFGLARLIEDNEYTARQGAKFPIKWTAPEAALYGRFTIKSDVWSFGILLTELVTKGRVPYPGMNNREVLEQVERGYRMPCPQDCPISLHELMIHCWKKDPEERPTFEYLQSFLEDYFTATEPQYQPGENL
Procedure: as §1

MTOR = target: T4, MTOR (Homo sapiens, UniProt P42345);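 on 0.001 uM KAM: median log10 fold change of treatment over DMSO control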;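 on 0.01 uM KAM: median log10 fold change of treatment over DMSO control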;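 on 0.1 uM KAM: median log10 fold change of treatment over DMSO control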;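 on 1 uM KAM: median log10 fold change of treatment over DMSO control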;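 on 10 uM KAM: median log10 fold change of treatment over DMSO control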
T4 construct: endogenous in cells; host or cells: K562
Procedure: as §1

PLK4 = target: T5, PLK4 (Homo sapiens, UniProt O00444)
T5 construct: endogenous in cells; host or cells: K562
T5 sequence (O00444 1-970): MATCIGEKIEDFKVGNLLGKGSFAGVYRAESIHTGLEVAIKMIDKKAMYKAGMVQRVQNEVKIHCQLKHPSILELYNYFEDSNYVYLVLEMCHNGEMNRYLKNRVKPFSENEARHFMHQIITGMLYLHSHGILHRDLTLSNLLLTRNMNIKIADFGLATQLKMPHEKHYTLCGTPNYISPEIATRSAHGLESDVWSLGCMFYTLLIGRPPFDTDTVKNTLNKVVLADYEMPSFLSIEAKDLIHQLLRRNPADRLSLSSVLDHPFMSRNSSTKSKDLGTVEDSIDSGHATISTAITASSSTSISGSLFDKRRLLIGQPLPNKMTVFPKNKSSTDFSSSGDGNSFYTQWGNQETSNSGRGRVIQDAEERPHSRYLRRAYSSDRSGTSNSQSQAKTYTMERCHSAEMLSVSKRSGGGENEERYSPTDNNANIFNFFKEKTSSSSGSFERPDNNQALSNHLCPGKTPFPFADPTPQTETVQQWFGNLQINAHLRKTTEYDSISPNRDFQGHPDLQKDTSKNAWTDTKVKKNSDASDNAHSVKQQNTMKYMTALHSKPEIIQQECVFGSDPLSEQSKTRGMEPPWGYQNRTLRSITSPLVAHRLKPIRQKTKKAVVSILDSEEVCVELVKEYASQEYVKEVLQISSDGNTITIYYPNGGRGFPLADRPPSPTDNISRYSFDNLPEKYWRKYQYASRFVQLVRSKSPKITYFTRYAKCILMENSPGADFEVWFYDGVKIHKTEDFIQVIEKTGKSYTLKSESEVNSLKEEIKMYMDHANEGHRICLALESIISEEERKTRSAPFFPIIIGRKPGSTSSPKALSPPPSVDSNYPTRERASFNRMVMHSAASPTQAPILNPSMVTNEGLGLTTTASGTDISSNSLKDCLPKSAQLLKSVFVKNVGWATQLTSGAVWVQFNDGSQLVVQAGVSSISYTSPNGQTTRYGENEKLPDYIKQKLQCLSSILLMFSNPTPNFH
Procedure: as §1

RPS6KA1 = target: T6, RPS6KA1 (Homo sapiens, UniProt Q15418);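 on 0.001 uM KAM: median log10 fold change of treatment over DMSO control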;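 on 0.01 uM KAM: median log10 fold change of treatment over DMSO control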;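 on 0.1 uM KAM: median log10 fold change of treatment over DMSO control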;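 on 1 uM KAM: median log10 fold change of treatment over DMSO control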;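 on 10 uM KAM: median log10 fold change of treatment over DMSO control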
T6 construct: endogenous in cells; host or cells: K562
Procedure: as §1

RPS6KA3 = target: T7, RPS6KA3 (Homo sapiens, UniProt P51812);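 on 0.001 uM KAM: median log10 fold change of treatment over DMSO control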;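 on 0.01 uM KAM: median log10 fold change of treatment over DMSO control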;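 on 0.1 uM KAM: median log10 fold change of treatment over DMSO control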;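 on 1 uM KAM: median log10 fold change of treatment over DMSO control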;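 on 10 uM KAM: median log10 fold change of treatment over DMSO control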
T7 construct: endogenous in cells; host or cells: K562
T7 sequence (P51812 whole entry): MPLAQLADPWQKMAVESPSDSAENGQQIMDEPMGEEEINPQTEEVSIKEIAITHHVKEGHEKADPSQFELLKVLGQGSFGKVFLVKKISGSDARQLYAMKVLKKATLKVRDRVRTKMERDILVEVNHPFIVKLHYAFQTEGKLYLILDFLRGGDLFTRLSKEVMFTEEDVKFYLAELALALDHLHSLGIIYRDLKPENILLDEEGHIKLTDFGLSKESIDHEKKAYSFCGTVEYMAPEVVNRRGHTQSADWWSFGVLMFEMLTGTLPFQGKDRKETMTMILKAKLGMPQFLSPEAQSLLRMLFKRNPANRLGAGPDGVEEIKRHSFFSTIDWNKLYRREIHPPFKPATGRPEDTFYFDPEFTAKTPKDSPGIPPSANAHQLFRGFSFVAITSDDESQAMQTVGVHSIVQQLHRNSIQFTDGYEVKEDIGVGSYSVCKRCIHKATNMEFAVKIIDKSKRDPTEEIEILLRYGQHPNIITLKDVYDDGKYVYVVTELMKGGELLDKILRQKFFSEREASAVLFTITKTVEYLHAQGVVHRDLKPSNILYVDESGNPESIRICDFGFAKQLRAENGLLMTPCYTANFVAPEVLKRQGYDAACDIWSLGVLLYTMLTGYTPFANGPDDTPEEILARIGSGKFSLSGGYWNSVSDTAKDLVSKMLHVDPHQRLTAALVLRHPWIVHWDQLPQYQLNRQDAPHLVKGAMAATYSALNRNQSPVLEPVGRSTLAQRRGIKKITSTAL
Procedure: as §1

[1] = KAM 0.001-10 uM, read-out: RB50 (the source's name)
[2] = read-out: RB50 (the source's name)

N#CCc1ccc(Nc2nc(NCCCN)cc(Nc3cc(C4CC4)[nH]n3)n2)cc1 [KAM]
IC50 (CDC42BPA; [1]): > 10 µM
0.001 uM KAM (CDC42BPA; relative to 0 uM KAM = 0): -0.02138
0.01 uM KAM (CDC42BPA; relative to 0 uM KAM = 0): -0.0113
0.1 uM KAM (CDC42BPA; relative to 0 uM KAM = 0): -0.01108
1 uM KAM (CDC42BPA; relative to 0 uM KAM = 0): 0.04656
10 uM KAM (CDC42BPA; relative to 0 uM KAM = 0): -0.06135
IC50 (CIT; [1]): > 10 µM
0.001 uM KAM (CIT; relative to 0 uM KAM = 0): -0.03357
0.01 uM KAM (CIT; relative to 0 uM KAM = 0): -0.05687
0.1 uM KAM (CIT; relative to 0 uM KAM = 0): -0.1025
1 uM KAM (CIT; relative to 0 uM KAM = 0): -0.03677
10 uM KAM (CIT; relative to 0 uM KAM = 0): -0.04946
median Log10 fold change (FYN; 0.001 uM KAM): -0.01373
median Log10 fold change (FYN; 0.01 uM KAM): 0.006068
median Log10 fold change (FYN; 0.1 uM KAM): -0.1646
median Log10 fold change (FYN; 1 uM KAM): -0.3588
median Log10 fold change (FYN; 10 uM KAM): -0.4538
IC50 (FYN; [2]): 0.754 µM
IC50 (MTOR; [1]): > 10 µM
0.001 uM KAM (MTOR; relative to 0 uM KAM = 0): -0.05296
0.01 uM KAM (MTOR; relative to 0 uM KAM = 0): -0.02855
0.1 uM KAM (MTOR; relative to 0 uM KAM = 0): -0.0574
1 uM KAM (MTOR; relative to 0 uM KAM = 0): -0.03577
10 uM KAM (MTOR; relative to 0 uM KAM = 0): -0.01614
median Log10 fold change (PLK4; 0.001 uM KAM): -0.0157
median Log10 fold change (PLK4; 0.01 uM KAM): 0.006981
median Log10 fold change (PLK4; 0.1 uM KAM): -0.1724
median Log10 fold change (PLK4; 1 uM KAM): -0.3044
median Log10 fold change (PLK4; 10 uM KAM): -0.3267
IC50 (PLK4; [2]): 1.4 µM
IC50 (RPS6KA1; [1]): > 10 µM
0.001 uM KAM (RPS6KA1; relative to 0 uM KAM = 0): -0.05187
0.01 uM KAM (RPS6KA1; relative to 0 uM KAM = 0): 0.03804
0.1 uM KAM (RPS6KA1; relative to 0 uM KAM = 0): -0.06196
1 uM KAM (RPS6KA1; relative to 0 uM KAM = 0): -0.09025
10 uM KAM (RPS6KA1; relative to 0 uM KAM = 0): -0.1209
IC50 (RPS6KA3; [1]): > 10 µM
0.001 uM KAM (RPS6KA3; relative to 0 uM KAM = 0): -0.01612
0.01 uM KAM (RPS6KA3; relative to 0 uM KAM = 0): -0.01929
0.1 uM KAM (RPS6KA3; relative to 0 uM KAM = 0): -0.05841
1 uM KAM (RPS6KA3; relative to 0 uM KAM = 0): -0.1372
10 uM KAM (RPS6KA3; relative to 0 uM KAM = 0): -0.2816
